Data taken from US20210395295A1, “INHIBITORS OF GLUCOCORTICOID RECEPTOR” (ORIC Pharmaceuticals, Inc., priority 2015, published 2021).

What was measured:
GR = biological target: T1, GR (Homo sapiens, UniProt P04150); experiment: In vitro GR luciferase reporter assay (antagonist mode); type: cell-based; details: CHO-K1-GR-MMTV-Luc reporter cells, 10 nM dexamethasone, 18-24 hours
T1 construct: expressed in transfected cells; host or cells: CHO-K1 (Chinese hamster ovary) reporter cells carrying GR and MMTV-Luc
T1 sequence (P04150 1-777): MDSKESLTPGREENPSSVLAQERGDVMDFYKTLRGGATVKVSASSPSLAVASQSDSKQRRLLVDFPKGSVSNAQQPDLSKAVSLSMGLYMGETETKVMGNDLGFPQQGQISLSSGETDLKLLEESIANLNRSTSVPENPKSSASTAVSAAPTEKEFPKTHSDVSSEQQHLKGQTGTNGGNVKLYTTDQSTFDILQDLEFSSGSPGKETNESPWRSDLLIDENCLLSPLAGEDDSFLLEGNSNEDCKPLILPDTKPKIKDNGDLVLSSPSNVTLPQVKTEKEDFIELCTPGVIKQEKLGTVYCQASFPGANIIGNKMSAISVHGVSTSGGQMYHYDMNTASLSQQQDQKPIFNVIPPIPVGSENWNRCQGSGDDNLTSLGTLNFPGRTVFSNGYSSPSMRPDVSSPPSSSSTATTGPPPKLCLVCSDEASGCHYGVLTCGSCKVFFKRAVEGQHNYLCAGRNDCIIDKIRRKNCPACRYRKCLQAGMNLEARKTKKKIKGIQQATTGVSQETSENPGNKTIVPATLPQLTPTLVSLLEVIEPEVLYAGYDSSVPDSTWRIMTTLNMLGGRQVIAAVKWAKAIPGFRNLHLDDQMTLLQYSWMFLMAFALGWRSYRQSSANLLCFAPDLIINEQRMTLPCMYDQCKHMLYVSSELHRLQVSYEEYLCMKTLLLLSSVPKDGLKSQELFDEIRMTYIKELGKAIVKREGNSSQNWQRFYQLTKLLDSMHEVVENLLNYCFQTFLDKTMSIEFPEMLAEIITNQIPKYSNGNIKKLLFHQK
From the text: Example 4: In Vitro GR Luciferase Reporter Assay
• Cell Line: CIH-K1-GR-MMTV-Luc reporter cells • Culture Media: DMEM (with phenol red) +10% FBS • Assay Media: DMEM (without phenol red) +10% CSS
Culture CHO-K1-GR-MMTV-Luc reporter cells in 15 cm plates in Culture Media at conditions less than 90% confluence.
Prepare 200× DMSO 1:5 serial dilutions of control and test compounds in 96-well non-sterile V bottom plate in DMSO, 8 serial dilutions for each compound.
Prepare 5× Assay Media diluted compound serial dilutions in 96-well non-sterile V bottom plate: Add 97.5 uL/well of Assay Media into 96-well then add 2.5 ul of 200× concentration of compounds and mix well.
Seed cells for Antagonist Assay: 1.5×10^6 CHO-K1-GR-MMTV-Luc reporter cells were seeded in a Corning 3707 flat clear bottom 384-well white TC plate in 20 ul of Assay Media containing 12.5 nM Dexamethasone (final concentration=10nM). […]
Read plates: Equilibrate appropriate amount of Promega OneGlo luciferase reagent to room temperature. Remove the plates from incubator and add 25 uL of OneGlo reagent/well by multiple channel pipette and read the plates with Tecan F500 luminometer within 3 minutes.
The ability of the compounds disclosed herein to inhibit GR activity was quantified and the respective IC50 value was determined. […]

AR = experiment: In vitro AR agonism assay in LNAR reporter cell line; type: cell-based; details: for Relative Maximum Response to Mifepristone: LNAR cells (overexpressed AR, 4xARE-Luc), RPMI + 10% CSS, Mifepristone maximum response set to 1
Protocol: Example 5: In Vitro AR Agonisin Assay
The AR agonism assay was done in the LNAR reporter cell line which has overexpressed AR and 4×ARE-Luc genes. This cell line is sensitive to even minor partial AR agonism activity in hormone-deprived media (CSS). The assays were done in RPMI (without phenol red) +10% CSS using 6000 LNAR cells/well in 384-well plates and compounds were incubated with cells in […] incubator for 8-24 hrs. OneGlo reagent (25 uL/well) was added and plates were read with luminometer within 3 minutes.
To gauge the AR partial agonism activity, Mifepristone is included as a standard in the assay. AR agonism assay results are quantified by determining the ratio of the maximum response of individual compounds to the maximum response of Mifepristone (arbitrarily set to 1). Values of Table 4 are reported as Relative Maximum Response to Mifepristone. This general trend of AR agonism was shown for the class of compounds described herein.

| IC50 (GR) [nM] | Structure (SMILES) | Relative Maximum Response to Mifepristone (AR) | further results |
| --- | --- | --- | --- |
| > 100 | Cc1ccc([C@H]2C[C@@]3(C)[C@@H](CC[C@@]3(O)C#CC(C)(F)F)[C@@H]3CCC4=CC(=O)CCC4=C32)cc1F |  |  |
| ≤ 100 | [2H]C([2H])([2H])C#C[C@]1(O)[C@H](C)C[C@H]2[C@@H]3CCC4=CC(=O)CCC4=C3[C@@H](c3cc(F)c(C)c(F)c3)C[C@@]21C |  |  |
|  | CC(C)C#C[C@]1(O)CC[C@H]2[C@@H]3CCC4=CC(=O)CCC4=C3[C@@H](c3ccc(N(C)C)c(F)c3)C[C@@]21C | A (A: ≤0.4) |  |
|  | CN(C)c1ccc([C@H]2C[C@@]3(C)[C@@H](CC[C@@]3(O)C#CC(C)(C)C)[C@@H]3CCC4=CC(=O)CCC4=C32)cc1 | A (A: ≤0.4) |  |
|  | CC#C[C@]1(O)CC[C@H]2[C@@H]3CCC4=CC(=O)CCC4=C3[C@@H](c3ccc(N(C)C)cc3)C[C@@]21C [Mifepristone, reference compound] |  | concentration showing strong partial AR agonism (AR; LNAR reporter cells, hormone-deprived media (CSS)): ≥ 10 nM |
